From PubChem BioAssay AID1259407 (Chemical Carcinogenesis Research Information System (CCRIS), 2018)
Calls of active or inactive are those of the source. The rule behind the calls is not given here.

Test system: CCRIS mutagenicity, Ames/micronucleus/aberration tests
Assay: CCRIS mutagenicity studies
[1] = Test System: AMES SALMONELLA TYPHIMURIUM, Strain/Indicator: TA98, Metabolic Activation: NONE, Method: STANDARD PLATE
[2] = Test System: AMES SALMONELLA TYPHIMURIUM, Strain/Indicator: TA98, Metabolic Activation: RAT, LIVER, S-9, AROCLOR 1254, Method: STANDARD PLATE
[3] = Test System: AMES SALMONELLA TYPHIMURIUM, Strain/Indicator: TA100, Metabolic Activation: NONE, Method: STANDARD PLATE
[4] = Test System: AMES SALMONELLA TYPHIMURIUM, Strain/Indicator: TA100, Metabolic Activation: RAT, LIVER, S-9, AROCLOR 1254, Method: STANDARD PLATE

SMILES	mutagenic call (Test System: AMES SALMONELLA TYPHIMURIUM, Strain/Indicator: TA97, Metabolic Activation: NONE, Method: STANDARD PLATE)	mutagenic call (Test System: AMES SALMONELLA TYPHIMURIUM, Strain/Indicator: TA97, Metabolic Activation: RAT, LIVER, S-9, AROCLOR 1254, Method: STANDARD PLATE)	mutagenic call [1]	mutagenic call [2]	mutagenic call [3]	mutagenic call [4]	mutagenic call (Test System: AMES SALMONELLA TYPHIMURIUM, Strain/Indicator: TA102, Metabolic Activation: NONE, Method: STANDARD PLATE)	mutagenic call (Test System: AMES SALMONELLA TYPHIMURIUM, Strain/Indicator: TA102, Metabolic Activation: RAT, LIVER, S-9, AROCLOR 1254, Method: STANDARD PLATE)	mutagenic call (Test System: AMES SALMONELLA TYPHIMURIUM, Strain/Indicator: TA98, Metabolic Activation: NONE, Method: PREINCUBATION)	mutagenic call (Test System: AMES SALMONELLA TYPHIMURIUM, Strain/Indicator: TA98, Metabolic Activation: RAT, LIVER, AROCLOR 1254, NADPH GENERATING SYSTEM, Method: STANDARD PLATE)	mutagenic call (Test System: AMES SALMONELLA TYPHIMURIUM, Strain/Indicator: TA100, Metabolic Activation: NONE, Method: PREINCUBATION)	mutagenic call (Test System: AMES SALMONELLA TYPHIMURIUM, Strain/Indicator: TA100, Metabolic Activation: RAT, LIVER, AROCLOR 1254, NADPH GENERATING SYSTEM, Method: STANDARD PLATE)	mutagenic call (Test System: CHINESE HAMSTER V-79, Strain/Indicator: V-79/8-AZAGUANINE, Metabolic Activation: NONE)	mutagenic call (Test System: CHINESE HAMSTER V-79, Strain/Indicator: V-79/8-AZAGUANINE, Method: STANDARD PLATE)
C[C@@H]1O[C@@H](O[C@H]2[C@H](O[C@H]3[C@H](O[C@H]4CC[C@@]5(C)[C@@H](CC[C@]6(C)[C@@H]5CC=C5[C@@H]7CC(C)(C)C[C@@H](O)[C@]7(C)CC[C@]56C)[C@@]4(C)CO)O[C@H](C(=O)O)[C@@H](O)[C@@H]3O)O[C@H](CO)[C@H](O)[C@@H]2O)[C@H](O)[C@H](O)[C@H]1O	inactive; negative	inactive; negative	inactive; negative	inactive; negative	inactive; negative	inactive; negative	inactive; negative	inactive; negative						
O=C(/C=C/c1ccccc1)c1ccc(F)cc1			inactive; negative	inactive; negative	inactive; negative	inactive; negative								
O[C@H]1[C@@H]2O[C@@H]2c2c(ccc3cc4c(ccc5ccccc54)nc23)[C@@H]1O									active; positive	active; positive	active; positive	active; positive	active; positive	active; positive
